Paper PMC8092876, “A Leucyl-tRNA Synthetase Inhibitor with Broad-Spectrum Antimycobacterial Activity” (Antimicrobial Agents and Chemotherapy, 2021)
Values after ≈ are worked out from the molar mass of the structure shown.

Experiments:
[1] = test system: M. abscessus subsp. massiliense CCUG 48898T; experiment: MIC assay in 96-well plate format; assay type: cell-based; details: Mycobacteroides abscessus, culture collection reference strain
[2] = test system: M. abscessus subsp. abscessus M404; experiment: MIC assay in 96-well plate format; assay type: cell-based; details: Mycobacteroides abscessus; M. abscessus subsp. abscessus M404, clinical isolate
[3] = test system: M. abscessus subsp. bolletii M232; experiment: MIC assay in 96-well plate format; assay type: cell-based; details: Mycobacteroides abscessus; M. abscessus subsp. bolletii M232, clinical isolate
[4] = test system: M. abscessus subsp. massiliense M111; experiment: MIC assay in 96-well plate format; assay type: cell-based; details: Mycobacteroides abscessus; M. abscessus subsp. massiliense M111, clinical isolate
[5] = test system: M. abscessus subsp. abscessus K21; experiment: MIC assay in 96-well plate format; assay type: cell-based; details: Mycobacteroides abscessus; M. abscessus subsp. abscessus K21, clinical isolate, infection model
[6] = test system: M. intracellulare ATCC 13950; experiment: MIC assay in 96-well plate format; assay type: cell-based; details: Mycobacterium intracellulare, ATCC13950; M. intracellulare ATCC 13950, culture collection reference strain
[7] = test system: M. abscessus Bamboo RM2 (LeuS K502E); experiment: microbe, parasite or virus in culture; assay type: cell-based; details: Mycobacteroides abscessus
[8] = test system: M. abscessus Bamboo RM5 (LeuS V417M); experiment: microbe, parasite or virus in culture; assay type: cell-based; details: RM5, batch 2, LeuS V417M
[9] = Stability in microsomes; assay type: in vitro ADME
Protocol: Intrinsic clearance (CLi) values were determined in mouse and human liver microsomes. Test compounds (final concentration 0.5 μM) were incubated at 37°C for 30 min in 50 mM potassium phosphate buffer (pH 7.4) containing 0.5 mg microsomal protein/ml. The reaction was started by addition of cofactor NADPH. At 0, 5, and 20 min, an aliquot (90 μl) was taken, quenched with acetonitrile-methanol containing an appropriate internal standard, centrifuged, and analyzed by liquid chromatography-tandem mass spectrometry (LC-MS/MS). The intrinsic clearance (CLi) was determined using the following equation: CLi = k(ml of incubation/mg microsomal protein) × (mg microsomal protein/g liver)where k is the turnover rate constant of the ln(% remaining compound) versus time regression and mg microsomal protein/g liver is 52.5 for both mouse and human.

CC(C)(O)COc1ccc(Br)c2c1B(O)O[C@@H]2CN [EC/11770]
MIC [1]: 0.71 µM (≈ 0.234 µg/mL)
MIC [2]: 0.52 µM (≈ 0.172 µg/mL)
MIC [3]: 0.67 µM (≈ 0.221 µg/mL)
MIC [4]: 0.95 µM (≈ 0.313 µg/mL)
MIC [5]: 0.6 µM (≈ 0.198 µg/mL)
MIC [6]: 0.37 µM (≈ 0.122 µg/mL)
MIC [7]: > 100 µM
MIC ([8]; Mycobacteroides abscessus): 60 to 75 µM (≈ 19.8 to 24.7 µg/mL)
MIC [8]: 75 µM (≈ 24.7 µg/mL)
Human in vitro CLint ([9]; human hepatic microsomes): <0.5 <0.5 ml/min/g tissue
Mouse in vitro CLint ([9]; mouse hepatic microsomes): <0.5 <0.5 ml/min/g tissue
